This is an account of results in publication PMC9898755 (The Journal of Biological Chemistry, 2023).

The target of one test is T1, Sec14^V155F (Saccharomyces cerevisiae, UniProt P24280, V155F).
T1 sequence (P24280 2-304 V155F): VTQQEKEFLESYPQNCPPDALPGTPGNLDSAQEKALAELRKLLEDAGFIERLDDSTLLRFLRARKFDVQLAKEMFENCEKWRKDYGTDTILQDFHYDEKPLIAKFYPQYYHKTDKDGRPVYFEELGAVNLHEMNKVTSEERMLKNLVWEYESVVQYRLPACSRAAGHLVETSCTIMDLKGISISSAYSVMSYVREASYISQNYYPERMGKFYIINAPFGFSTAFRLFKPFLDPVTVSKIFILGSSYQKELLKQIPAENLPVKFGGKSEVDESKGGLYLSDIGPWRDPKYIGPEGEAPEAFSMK
As to the kind of experiment: [3H]-PtdIns-transfer assay, […] PITP, […] himbacine, […] inhibition. It is filed as biochemical. Conditions: read-out: % inhibition at 20 μM.

Another test has as its target T2, Sec14^V154F (Saccharomyces cerevisiae, UniProt P24280, V154F).
T2 sequence (P24280 2-304 V154F): T1 sequence (P24280 2-304 V155F)
The test is described as above. It is filed as biochemical. Conditions: read-out: % inhibition at 20 μM.

As a reminder, the inhibition is the share of the control response that was lost under treatment. As to `C[C@@H]1OC(=O)[C@H]2C[C@H]3CCCC[C@@H]3[C@@H](/C=C/[C@H]3CCC[C@H](C)N3C)[C@@H]12` [himbacine], the inhibition at 20 µM on Sec14^V155F came to 73 ± 2.1%; on Sec14^V154F, 71 ± 1.2%.
